Measurements taken from paper PMC5345165, “Cardiotoxicity evaluation using human embryonic stem cells and induced pluripotent stem cell-derived cardiomyocytes” (Stem Cell Research & Therapy, 2017).
Values belong to the molecule of their own block, whether it stands above or below them.

Experiments:
hESC-CMs = assay: xCELLigence RTCA Cardio impedance assay on hESC-CMs; assay type: cell-based, human; settings: for CI (concentration at which cell index is decreased, ↓): arrow ↓ = CI decreased, NO = no effect
Description: (§1) Human ESC-CMs were kindly provided by the Institute of Biophysics of the Chinese Academy of Sciences, Beijing, China. Human iPSC-CMs, provided by a domestic manufacturer (Cellapy: CA2001106, Beijing, China), were also examined. Cells were incubated in maintaining medium at 37 °C, 5% CO2, with culture medium refreshed every 2 days. Cells were dissociated and replated into 96-well E-plates (ACEA Biosciences, Hangzhou, China), which was pre-coated with 0.1% gelatin. Cells were plated at a density of 50,000 cells per well.
(§2) Spontaneous cardiomyocytes contraction and cell health were monitored in real-time by impedance using xCELLigence real-time cellular analyzer (RTCA) Cardio system (ACEA Biosciences, Hangzhou, China). Impedance signals were monitored and recorded with 20 s recording per sweep.
(§3) Drug dilutions were equilibrated in a 37 °C, 5% CO2 incubator for 30 min before being applied to E-plates.
(§4) For data analysis, cellular impedance index, beat rate, and amplitude were measured off-line using RTCA Cardio software 1.0 and normalized for each well to the baseline (pre-dose) values measured prior to the compounds treatment. Statistics were performed using SPSS 21.0 (IBM Corp., Armonk, NY, USA). Data were presented as mean ± SEM. Statistical significance of differences was estimated by one-way ANOVA or Student’s t test. p < 0.05 was considered significant.

hiPSC-CMs = assay: xCELLigence RTCA Cardio impedance assay on hiPSC-CMs; assay type: cell-based, human; settings: for CI (concentration at which cell index is decreased, ↓): arrow ↓ = CI decreased
Description: as §1, §2, §3, §4

[1] = concentration-dependent effect, impedance
[2] = hiPSC-CMs, concentration-dependent
[3] = hiPSC-CMs, concentration-dependent effect, impedance

SMILES: Cc1cccc(CCN2CCC(C(=O)c3ccc(NS(C)(=O)=O)cc3)CC2)n1 [E-4031]
time at which cells recovered automaticity (hESC-CMs; 10 nmol/L): 24 h
time post administration at which spontaneous beating ceased (hESC-CMs; 300 nmol/L): 0.5 h
time of temporary recovery of spontaneous beating activity (hESC-CMs; 300 nmol/L, one recording): 18 h
time post administration at which spontaneous activity ceased (hESC-CMs; 10, 30 and 100 nmol/L): 6 h
spontaneous beating rate (hESC-CMs; all concentrations (10, 30, 100, 300 nmol/L), upon immediate administration): Reduction
CI amplitude (hiPSC-CMs; hiPSC-CMs, 30 nmol/L, 18 h culture, tended to recover at 24 h): Reduction
time at which spontaneous beating ceased (hiPSC-CMs; hiPSC-CMs, 100 nmol/L): 12 h
spontaneous beating rate (hiPSC-CMs; hiPSC-CMs, 100 nmol/L, 6 h after administration): markedly reduced
time post administration at which spontaneous activity was abolished (hiPSC-CMs; hiPSC-CMs, 300 nmol/L): 2 h
spontaneous beating rate (hiPSC-CMs; hiPSC-CMs, 300 nmol/L, 1 h after administration): significantly reduced

effect on CI and pulse signals (hESC-CMs; concentration-dependent): reduced
IC50/EC50 (IC50) (hESC-CMs; [1]): 140 nM
CI (concentration at which cell index is decreased, ↓) (hiPSC-CMs; hiPSC-CMs): 10↓ μmol•L^-1
effect on CI and pulse signals (hiPSC-CMs; [2]): reduced
IC50/EC50 (IC50) (hiPSC-CMs; [3]): 5170 nM
SMILES: O=C(CCCN1CCC(O)(c2ccc(Cl)cc2)CC1)c1ccc(F)cc1 [Haloperidol, haloperidol]
beating rate (hESC-CMs; 0.01 μmol/L, 6 h post administration): mild reduction
spontaneous beating rate and amplitudes (hESC-CMs; 0.1 μmol/L): significantly reduced
time at which cellular automaticity ceased (hESC-CMs; 1 μmol/L): 0.5 h
time post administration at which partial recovery was observed (hESC-CMs; 1 μmol/L): 24 h
self-recovery after abolished spontaneous beating (hESC-CMs; 10 μmol/L, investigation period): no self-recovery
spontaneous beating rate (hiPSC-CMs; hPSC-CMs, 0.1 μmol/L): Mild reduction
time post administration at which beating rate recovered (hiPSC-CMs; hPSC-CMs, 0.1 μmol/L): 18 h
beating rate (hiPSC-CMs; hPSC-CMs, 1 μmol/L, after 0.5 h): significantly reduced
time at which cellular automaticity ceased (hiPSC-CMs; hPSC-CMs, 10 μmol/L): 0.5 h
time at which self-recovery was observed (hiPSC-CMs; hPSC-CMs, 10 μmol/L): 24 h
amplitude compared with controls (hiPSC-CMs; hPSC-CMs, 10 μmol/L, after self-recovery at 24 h): significantly decreased

CI (concentration at which cell index is decreased, ↓) (hESC-CMs): 0.1↓ μmol•L^-1
CI (concentration at which cell index is decreased, ↓) (hESC-CMs; listed as isoprenaline): ≥ 0.1 µmol/L
IC50/EC50 (EC50) (hESC-CMs; [1]): 40 nM
CI (concentration at which cell index is decreased, ↓) (hiPSC-CMs; hiPSC-CMs): 1↓ μmol•L^-1
effect on CI (hiPSC-CMs; [2]): decrease
IC50/EC50 (EC50) (hiPSC-CMs; [3]): 30 nM
SMILES: CC(C)NCC(O)c1ccc(O)c(O)c1 (stereo not drawn) [Isoprenaline, isoprenaline]
time after which beating rate recovered (hESC-CMs; 0.01 μmol/L): 12 h
spontaneous beating rate (hESC-CMs; 0.01 μmol/L, 0.5 h post injection): increased
time at which automaticity recovered (hESC-CMs; 0.1, 1 and 10 μmol/L): 24 h
cellular automaticity (hESC-CMs; 0.1, 1 and 10 μmol/L, 0.5 h post injection): significantly increased
amplitude (hiPSC-CMs; hPSC-CMs, 0.1, 1 and 10 μmol/L): increased
time at which beating rate recovered (hiPSC-CMs; hiPSC-CMs, 0.1, 1 and 10 μmol/L): 24 h
beating rate (hiPSC-CMs; hiPSC-CMs, 0.1, 1 and 10 μmol/L, after 0.5 h of administration): significantly increased

effect on CI (hESC-CMs; 100 μmol/L, when perfusion was initiated): significant temporary decrease
CI (concentration at which cell index is decreased, ↓) (hESC-CMs): 100↓ μmol•L^-1
IC50/EC50 (IC50) (hESC-CMs; [1]): 2180 nM
CI (concentration at which cell index is decreased, ↓) (hiPSC-CMs; hiPSC-CMs): 100↓ μmol•L^-1
effect on CI (hiPSC-CMs; [2]): reduced
IC50/EC50 (IC50) (hiPSC-CMs; [3]): 13970 nM
SMILES: C=C[C@H]1C[N@@]2CC[C@H]1C[C@@H]2[C@@H](O)c1ccnc2ccc(OC)cc12 [Quinidine, quinidine]
time at which spontaneous beating recovered (hESC-CMs; 12.5 μmol/L): 6 h
time at which spontaneous beating recovered (hESC-CMs; 50 μmol/L): 24 h
self-recovery after abolished cellular automaticity (hESC-CMs; 100 μmol/L): without observing self-recovery
time post administration at which spontaneous beating ceased (hESC-CMs; 12.5 and 50 μmol/L): 0.5 h
concentration that weakened the pulse signals (hESC-CMs; concentration-dependent): ≥ 3.13 µmol/L
concentration that weakened the amplitudes of pulse signals (hiPSC-CMs; hiPSC-CMs): ≥ 12.5 µmol/L
time after which beating rate spontaneously recovered (hiPSC-CMs; hiPSC-CMs, 3.13 μmol/L): 1 h
beating rate (hiPSC-CMs; hiPSC-CMs, 3.13 μmol/L, 0.5 h after administration): markedly reduced
time after which amplitude recovered (hiPSC-CMs; hiPSC-CMs, 12.5 μmol/L): 2 h
amplitude (hiPSC-CMs; hiPSC-CMs, 12.5 μmol/L, 0.5 h and 1 h post administration): substantially reduced
self-recovery of automaticity within the observation period (hiPSC-CMs; hiPSC-CMs, 50 and 100 μmol/L): without self-recovery
time after administration at which cellular automaticity ceased (hiPSC-CMs; hiPSC-CMs, 50 and 100 μmol/L): 0.5 h
